Assay results as given in patent US20210393793A1, “AXL-SPECIFIC ANTIBODIES FOR TREATMENT OF NON-SMALL CELL LUNG CANCER” (priority 2018, published 2021).
“Also recorded” adds a separate entry of the source.

How the values were obtained:
[1] = test system: non-small cell lung andenocarcinoma; test: Subject examples: tumor assessments by scan (RECIST 1.1); assay type: in vivo, human
Protocol: (§1) Response in solid tumor cancers was assessed in accordance with the RECIST criteria version 1.1^18 and for patients with ovarian cancer according to RECIST 1.1 in combination with CA 125 as defined by the Gynecological Cancer Intergroup^2.
Tumor shrinkage (based on CT-scan evaluations) was listed and summarized, per source (radiologist, central read).

[2] = test system: non-small cell lung andenocarcinoma patients; test: Subject examples: treatment emerging events; assay type: in vivo, human; details: listed as enapotamab vendotin
Description: (§2) Primary Endpoints • Dose Limiting Toxicities (DLTs) • Adverse events (AEs): incidences of AEs, serious adverse events (SAEs), infusion-related AEs, grade 3 AEs, and AEs related to IMP during the trial.

[3] = test system: patients with solid tumors; test: Phase I dose escalation: DLTs, MTD, RP2D, adverse events; assay type: in vivo, human
Description: The present study was an open label, multi-center Phase I/IIa safety trial of HuMax AXL ADC in a mixed population of patients with solid tumors known from the literature to overexpress Axl and where the use of systemic tubulin inhibitors is part of Standard of Care (SoC). The trial consisted of two parts; a dose escalation part (phase I, first-in-human (FIH)) and an expansion part (phase IIa).
The dose escalation part consists of two, staggered, arms for identification of the most optimal dosing regimen: • 1Q3W: Dosing once every 3 weeks • 3Q4W: Weekly dosing for 3 weeks followed by one treatment-free week.
The 1Q3W dose escalation evaluated HuMax-AXL-ADC at seven main dose levels: 0.3, 0.6, 1.0, 1.5, 2.0, 2.4 and 2.8 mg/kg, and 4 optional intermediate dose levels 1.25, 1.8, 2.2 and 2.6 mg/kg. Further escalation with steps of 0.4 mg/kg and de-escalation by 0.2 mg/kg was allowed, if the MTD had not been declared at a dose level up to 2.8 mg/kg.
In the 1Q3W dose escalation the patients received 1 infusion of HuMax-AXL-ADC every three weeks as according to FIG. 2.
The 3Q4W dose escalation was conducted as a standard 3 (+3) design which evaluatedHuMax-AXL-ADC at doses of (0.45), 0.6, 0.8, 1.0, 1.2 and 1.4 mg/kg. The escalation was allowed to continue to higher dose levels with increments up to 20%, if the 1.4 mg/kg was reached without significant safety concerns and it was considered safe to escalate above 1.4 mg/kg, the. The starting dose was expected to be 0.6 mg/kg (a dose level of 0.45 mg/kg could be added) and as an additional precaution, the independent Data Monitoring Committee (DMC) could recommend intermediate dose levels at any step during dose escalation.
In the 3Q4W dose escalation the patients received weekly dosing for 3 weeks followed by one treatment-free week according to FIG. 3. Patients were treated until disease progression or unacceptable toxicity was observed.
as §2

[4] = test system: cynomolgus monkeys; test: Toxicokinetic and toxicology data in cynomolgus monkeys; assay type: in vivo
[5] = test system: EGFR mutated NSCLC patients; test: Expansion cohort 1: response (RECIST v1.1); assay type: in vivo, human
Description: (§3) Patients had to meet all of the following inclusion criteria before they will be allowed to participate in the trial: • 1. For the dose escalation part: Patients with relapsed or refractory cancer of the ovary, cervix, endometrium, thyroid, non-small cell lung cancer (NSCLC), or melanoma (cutaneous, mucosal, acral or uveal melanoma) who have failed available standard therapy or who are not candidates for standard therapy, and for whom, in the opinion of the investigator, experimental therapy with HuMax-AXL-ADC may be beneficial. • For the expansion part: Patients with relapsed or refractory, advanced and/or metastatic cancer who were not candidates for standard therapy, and for whom, in the opinion of the investigator, experimental therapy with HuMax-AXL-ADC could be beneficial. […] Cohorts 1 and 2 included non-small cell lung cancer patients who had failed anticancer therapy as follows: • Expansion Cohort 1 (NSCLC patients with classical sensitizing EGFR mutations and/or other EGFR resistance mutations targeted by third generation TKIs (e.g. T790M for osimertinib)): • NSCLC patients after failure of up to 4 prior treatment regimens containing systemic therapy for metastatic disease • adjuvant and maintenance treatment is considered being part of one treatment regimen. • Documented progressive disease on or after last prior treatment • Last prior treatment to enrolment to GCT1021-01 should have been: • an EGFR inhibitor (e.g. Erlotinib, Osimertinib, etc.), • or a PD-1/PD-L1 inhibitor, • or a platinum-based doublet chemotherapy. • Expansion Cohort 2 (NSCLC patients without sensitizing EGFR mutations or ALK rearrangements) • NSCLC patients after failure of up to 4 prior treatment regimens containing systemic therapy for metastatic disease. • adjuvant and maintenance treatment is considered being part of one treatment regimen. • Documented progressive disease on or after last prior treatment. • Last prior treatment to enrolment to GCT1021-01 should have been • a PD-1/PD-L1 inhibitor. • or a chemotherapy (containing platinum, and/or taxane, and/or pemetrexed, and/or gemcitabine). • For the following conditions in Expansion Cohorts 1-2, the sponsor medical officer's approval of enrolment was needed: • if documented progression had not been on measurable disease (i.e. symptomatic progression). • if last prior treatment to enrolment was a combination therapy which contained an EGFR inhibitor or a PD-1/PD-L1 inhibitor. • if last prior treatment to enrolment contain chemotherapies other than platinum, and/or taxane, and/or pemetrexed, and/or gemcitabine (only applicable for NSCLC patients without sensitizing EGFR mutations or ALK rearrangements). • 2. […] In the dose escalation part all patients were required provide a tumor tissue sample (Formalin Fixed Paraffin Embedded blocks/slides) from archival tissue or fresh biopsy collected before Cycle 1, Visit 1, preferably derived from advanced disease stage. In the expansion part all patients were required to provide a fresh biopsy (aspirates were not acceptable) taken after failure/stop of last prior treatment. Furthermore the latest available tumor tissue sample had to be collected if available. • 4. Age 18 years. • 5. […]

[6] = test system: patients with solid tumors; test: Dose escalation: anti-tumor response (RECIST v1.1); assay type: in vivo, human; details: for patients with a partial response: 1Q3W arm
Description: (§4) Secondary Endpoints • Safety laboratory parameters (hematology and biochemistry). • PK parameters (clearance, volume of distribution and area-under-the-concentration-time curve [AUC0-Clast and AUC0-∞], maximum concentration [Cmax], time of Cmax [Tmax], pre dose values, and half-life of HuMax-AXL-ADC and free toxin monomethyl auristatin E [MMAE]). • Immunogenicity of HuMax-AXL-ADC (anti-drug antibodies). • Anti-tumor activity measured by tumor shrinkage (based on computerized tomography [CT]-scan evaluations), as well as change in CA 125 in patients with ovarian cancer and change in prostate specific antigen (PSA) in patients with castration-resistant prostate cancer (CRPC). • Objective Response, Progression-Free Survival (PFS), Duration of Response (DoR) and Overall survival (OS). • Axl expression in the tumor biopsy.
as §1
In the dose escalation, response evaluation was performed by the investigator and sponsor. In the expansion, response evaluation was performed by the investigator and sponsor as well as a group of external medical experts. Each patient was assigned one of the following categories:
Patients in response categories 1 and 2 were considered responders and patients in response categories 4 and 5 were considered as failing to respond to treatment (disease progression). Patients in response categories 1, 2 and 3 were considered to be in disease control.

[7] = Phase I dose escalation: PK parameters; assay type: in vivo, human; details: across doses/schedules
Description: as §4

[8] = test system: NSCLC patients without sensitizing EGFR mutations or ALK rearrangements; test: Expansion cohort 2: response (RECIST v1.1); assay type: in vivo, human
Description: as §3, with “5. Have an acceptable renal function defined as: • Glomerular filtration rate (GFR)≥40 mL/min/1.73 m^2—e.g., according to the abbreviated Modification of Diet in Renal Disease (MDRD) equation: GFR=186×(SCr^−1.154)×(age^−0.203)(where SCr, the serum creatinine level, is expressed in mg/dL; multiply it by 0.742 if the patient was female; multiply it by 1.212, if the patient was African-American^3). • Not being on dialysis. • 6. Have an acceptable liver function defined as: • Alanine aminotransferase (ALT) and aspartate aminotransferase (AST)≤3 times the ULN; if liver tumor/metastases were present, then ≤5×ULN was allowed. • Bilirubin≤1.5×ULN, except in patients diagnosed with Gilbert's syndrome, direct bilirubin≤2×ULN. • 7.” for “5.”

[9] = 34 patients treated in expansion
[10] = 36 patients treated with 2.2 mg/kg (escalation+expansion)
[11] = of 34 patients treated in expansion
[12] = of 36 patients treated with 2.2 mg/kg (escalation+expansion)

Enapotamab vedotin [HuMax-AXL-ADC]
decrease in sum of diameters compared to screening ([1]; Subject 401, C2D15): 15%
sum of diameters of target lesions ([1]; Subject 401, C2D15, screening 26 mm): 22 mm
decrease in sum of diameters compared to screening ([1]; Subject 401, C4D15): 34.6%
sum of diameters of target lesions ([1]; Subject 401, C4D15, screening 26 mm): 17 mm
decrease in sum of diameters compared to screening ([1]; Subject 401, C6D15): 57.6%
sum of diameters of target lesions ([1]; Subject 401, C6D15, screening 26 mm): 11 mm
decrease in sum of diameters compared to screening ([1]; Subject 403, C2D15): 19.3%
sum of diameters of target lesions ([1]; Subject 403, C2D15, screening 88 mm): 71 mm
decrease in sum of diameters compared to screening ([1]; Subject 403, C4D15): 35.2%
decrease in sum of diameters compared to screening ([1]; Subject 403, C6D15): 36.4%
sum of diameters of target lesions ([1]; Subject 403, second post-baseline scan (C4D15), screening 88 mm): 57 mm
sum of diameters of target lesions ([1]; Subject 403, third post-baseline scan (C6D15), screening 88 mm): 56 mm
decrease in sum of diameters compared to screening ([1]; Subject 406, C2D15): 46.8%
sum of diameters of target lesions ([1]; Subject 406, C2D15, screening 32 mm): 17 mm
Treatment emerging events (grade, relatedness) ([2]; Subject 401): urinary tract infection (G2, unrelated); also recorded: creatinine kinase increase (fluctuating between G1 and G2, possibly related); also recorded: muscle cramps (G1, possibly related); also recorded: worsening of cough (G2, unrelated); also recorded: ALT increase and AST increase (both G1 and unrelated); also recorded: dysphonia and left leg weakness, both events reported as G1 and possibly related
Treatment emerging events (grade, relatedness) ([2]; Subject 403): two episodes of nausea (both Gland possibly related); also recorded: skin and subcutaneous tissue disorder (G1, not related); also recorded: constipation (G2, related); also recorded: two episodes of anorexia (G1, first episode unrelated, second episode possibly related); also recorded: gastroesophageal reflux (G1, not related); also recorded: alopecia (G1, related); also recorded: AST increase (G1, possibly related)
Maximum Tolerated Dose (MTD) ([3]; 1Q3W arm): 2.2 mg/kg
Recommended Phase 2 Dose (RP2D) ([3]; 1Q3W dosing regime): 2.2 mg/kg
Maximum Tolerated Dose (MTD) ([3]; 3Q4W arm): 1.0 mg/kg
number of DLTs ([3]; 47 patients enrolled): 6
Adverse Effects (any grade): constipation ([3]; % of 47 patients): 57%
Adverse Effects (any grade): decreased appetite ([3]; % of 47 patients): 43%
Adverse Effects (any grade): diarrhea ([3]; % of 47 patients): 47%
Adverse Effects (any grade): fatigue ([3]; % of 47 patients): 64%
Adverse Effects (any grade): nausea ([3]; % of 47 patients): 57%
Adverse Effects (any grade): vomiting ([3]; % of 47 patients): 45%
recovery of neutrophils, thrombocytes and red blood cell parameters ([4]; cynomolgus monkey, in vivo): adequate recovery
safety profile ([4]; cynomolgus monkeys): acceptable safety profile
Disease Control Rate (DCR) ([5]; 18 patients treated): 39%
Objective Response Rate (unconfirmed) ([5]; 18 patients treated): 5.5%
patients with Best Overall Response (BoR) of unconfirmed PR ([5]; of 18 patients treated): 1
patients with BoR of PD ([5]; of 18 patients treated): 6
patients with BoR of SD ([5]; of 18 patients treated): 6
patients with a partial response ([6]; NSCLC, 2.2 mg/kg dose): 1
patients with a partial response ([6]; all tumor types): Three
patients with a partial response ([6]; ovarian, 1.5 and 2.4 mg/kg dose levels): 2
antitumor activity ([6]; single agent, pre-treated patients with solid tumors): encouraging preliminary antitumor activity
median elimination half-life [7]: 22 to 52.8 h
DCR [8, 9]: 47%
Objective Response Rate (ORR) (confirmed) [8, 9]: 11%
DCR [8, 10]: 50%
ORR (confirmed) [8, 10]: 13.8%
patients with BoR of PD [8, 11]: 7
patients with BoR of SD [8, 11]: 12
patients with BoR of confirmed PR [8, 11]: 4
patients with BoR of PD [8, 12]: 7
patients with BoR of SD [8, 12]: 13
patients with BoR of confirmed PR [8, 12]: 5
